Tests used:
K562 = experiment: MTT reduction proliferation assay, K562; type: cell-based, human; details: K562 proerythroblastic leukemia, 24 hours
Procedure: (§1) The effect of P18 and P24 on the proliferation of several cell lines was determined by the MTT reduction assay (Mosmann, T. (1983) J. Immunol. Methods 65, 55-63). Briefly, cells were seeded at a concentration of 3×10^4/well in flat-bottomed 96-well plates and grown in complete medium in the presence of various concentrations (ranging between 20 and 0.4 μM) of purified dinucleotides. After 24 hours, 10 μl of a 5 mg/ml solution of MTT were added to each well and the plates incubated for a further 2 hours. The supernatant was then removed from each well and the blue crystals produced by the reduction of the dye were dissolved in DMSO (200 μl/well). The optical absorbance at 570 nm was determined with a BioRad microplate reader.
(§2) In these experiments, cells were seeded onto 96 well plates (3×10^4 cells per well) and incubated in the presence of increasing concentrations of P18 or P24. After 24 hours, the percentage of viable cells was evaluated by spectrophotometric measurement of the concentration of reduced MTT (see Materials and Methods). The means of at least three separate experiments are shown (s.d.≦20% of the mean value). […]

[1] = Storage stability of purified lyophilised peaks; details: stored at −20° C., several months (approx. 6)
Procedure: The cyclase purified from A. polypoides was used for the production of the dinucleotides for structural and functional studies. In a total volume of 0.4 ml of 10 mM Tris-HCl, pH 7.0, 0.05 mg of purified cyclase were incubated with 1 mM cADPR (or NAD^+), 5 mM adenine and 2 mM MgCl2 at room temperature. cADPR or NAD^+ was added to the reaction mixture every 6 hours, while every 24 hours fresh cyclase was added and an aliquot of the incubation was deproteinised with TCA (5% final concentration) and analysed by HPLC (analytical phosphate) to monitor dinucleotide production. After 3-5 days, the resulting incubation was extracted with TCA and 250 μl aliquots were injected into an HPLC column (preparative phosphate). The P18, P24 and P31 peaks were collected, lyophilised in a RotoVapor, re-dissolved in deionised water and injected into an HPLC column (preparative formate). […] The purified peaks produced by Axinella cyclase were used in in vitro experiments on the various cell types described hereinafter, for the enzymatic production of mononucleotides and nucleosides (see below), as internal and external HPLC standards to identify the dinucleotides in cell extracts, and for detecting the absorption spectra stored in the liquid chromatograph library as standards.

HEP-G2 = experiment: MTT reduction proliferation assay, HEP-G2; type: cell-based, human; details: HEP-G2 hepatocarcinoma, 24 hours
Procedure: as §1, with “Briefly, cells were seeded at a concentration of 3×10^4/well in flat-bottomed 96-well plates and grown in complete medium in the presence of various concentrations (ranging between 20 and 0.4 μM) of purified dinucleotides.” left out
as §2, with “value). The production of P18 and P24 by human CD38 cyclase, with inhibitory effects on colony growth, together with cADPR, with stimulatory effect, may be at least partly responsible for the colony growth inhibition observed during long term culture of human HP cells on CD38^+ stroma.” for “value).”

HCT-8 = experiment: MTT reduction proliferation assay, HCT-8; type: cell-based, human; details: HCT-8 colon carcinoma, 24 hours
Procedure: as §1, with “Briefly, cells were seeded at a concentration of 3×10^4/well in flat-bottomed 96-well plates and grown in complete medium in the presence of various concentrations (ranging between 20 and 0.4 μM) of purified dinucleotides.” left out
as §2, with “value). The production of P18 and P24 by human CD38 cyclase, with inhibitory effects on colony growth, together with cADPR, with stimulatory effect, may be at least partly responsible for the colony growth inhibition observed during long term culture of human HP cells on CD38^+ stroma.” for “value).”

CD38^+ HeLa cells = experiment: Intracellular calcium assay (FURA 2-AM), CD38+ HeLa; type: cell-based, human; details: 10 μM for 18 hours; for tapsigargine-induced release of calcium from ER stores [Ca^2+]i: 1 μM tapsigargine
Procedure: Adherent CD38^+ and CD38^− human HeLa cells on 20 mm-diameter coverslips were incubated in complete medium in the presence of […] P18 or P24 for […]. The cells were then washed, incubated with 6 μM Fura 2-acetoxymethyl ester (FURA 2-AM) in standard saline (135 mM NaCl, 5.4 mM KCl, 1.8 mM CaCl2, 1 mM MgCl2, 5 mM Hepes, 10 mM glucose, pH 7.4) for 45 minutes at 37° C. and then washed several times with saline. Calcium measurements were performed in a 200-μl chamber mounted on an inverted microscope, as described in detail in Zocchi E., et al. (1998) J. Biol. Chem. 273, 8017-8024. After determination of basal [Ca^2+]i levels, 1 μM tapsigargine was added to induce the release of calcium from tapsigargine-sensitive stores ([…]). The parameter values needed for calibration were obtained at the end of the experimental measurements, as described in Zocchi E., et al. (1998) J. Biol. Chem. 273, 8017-8024.
Basal cytosolic calcium and tapsigargine-induced release of calcium from […] (ER) stores (in bold in Table 4) were measured in CD38^+ and CD38^− HeLa cells loaded with FURA 2-AM and incubated in the absence (control) or in the presence of P18 or P24 at a concentration of 10 μM for 18 hours. The results obtained, expressed as [Ca^2+]I nanomolarity, are summarised in Table 4, showing mean results from 8 separate experiments (s.d.≦15% of the mean value).

CD38^+ HeLa = experiment: MTT reduction proliferation assay, CD38+ HeLa; type: cell-based, human; details: 24 hours
Procedure: as §1, with “Briefly, cells were seeded at a concentration of 3×10^4/well in flat-bottomed 96-well plates and grown in complete medium in the presence of various concentrations (ranging between 20 and 0.4 μM) of purified dinucleotides.” left out
as §2, with “value). The production of P18 and P24 by human CD38 cyclase, with inhibitory effects on colony growth, together with cADPR, with stimulatory effect, may be at least partly responsible for the colony growth inhibition observed during long term culture of human HP cells on CD38^+ stroma.” for “value).”

Acid hydrolysis = type: physicochemical; details: yielding adenine and ADPR
HL60 = experiment: MTT reduction proliferation assay, HL60; type: cell-based, human; details: HL60 promyelocytic leukemia, 24 hours
Procedure: as §1, §2

Nc1ncnc2c1ncn2[C@@H]1O[C@H](COP(=O)(O)OP(=O)(O)OC[C@H]2O[C@@H](n3cnc4ncnc-4c3N)[C@H](O)[C@@H]2O)[C@@H](O)[C@H]1O [P18]
IC50 (K562): 44 µM
degradation on storage [1]: no dinucleotide degradation was observed
IC50 (HEP-G2): 78 µM
IC50 (HCT-8): 65 µM
ER stores-calcium, % of the control (CD38^+ HeLa cells): 48%
basal [Ca^2+]i, % of the control (CD38^+ HeLa cells): 41%
basal cytosolic free calcium [Ca^2+]i (CD38^+ HeLa cells): 16 nM
tapsigargine-induced release of calcium from ER stores [Ca^2+]i (CD38^+ HeLa cells): 123 nM
IC50 (CD38^+ HeLa): 120 µM
sensitivity to acid hydrolysis (Acid hydrolysis): sensitive to acid hydrolysis
IC50 (HL60): 26 µM

Nc1ncn([C@@H]2O[C@H](COP(=O)(O)OP(=O)(O)OC[C@H]3O[C@@H](n4cnc5c(N)ncnc54)[C@H](O)[C@@H]3O)[C@@H](O)[C@H]2O)c2ncnc1-2 [P24]
IC50 (K562): 5.8 µM
degradation on storage [1]: no dinucleotide degradation was observed
IC50 (HEP-G2): 18.2 µM
IC50 (HCT-8): 27 µM
ER stores-calcium, % of the control (CD38^+ HeLa cells): 80%
basal [Ca^2+]i, % of the control (CD38^+ HeLa cells): 154%
basal cytosolic free calcium [Ca^2+]i (CD38^+ HeLa cells): 57 nM
tapsigargine-induced release of calcium from ER stores [Ca^2+]i (CD38^+ HeLa cells): 203 nM
IC50 (CD38^+ HeLa): 9.1 µM
sensitivity to acid hydrolysis (Acid hydrolysis): sensitive to acid hydrolysis
IC50 (HL60): 2 µM

— patent publication US7868163B2, “Adenyl dinucleotides with antitumour activity and a method of preparing thereof” (Universita' Degli Studi Di Genova, priority 2005, dated 2011)
